target: Carbonic anhydrase 12 (Homo sapiens, UniProt O43570); test: Inhibition of human carbonic anhydrase-12 incubated for 15 mins by stopped-flow CO2 hydration assay
Sequence (O43570 whole entry): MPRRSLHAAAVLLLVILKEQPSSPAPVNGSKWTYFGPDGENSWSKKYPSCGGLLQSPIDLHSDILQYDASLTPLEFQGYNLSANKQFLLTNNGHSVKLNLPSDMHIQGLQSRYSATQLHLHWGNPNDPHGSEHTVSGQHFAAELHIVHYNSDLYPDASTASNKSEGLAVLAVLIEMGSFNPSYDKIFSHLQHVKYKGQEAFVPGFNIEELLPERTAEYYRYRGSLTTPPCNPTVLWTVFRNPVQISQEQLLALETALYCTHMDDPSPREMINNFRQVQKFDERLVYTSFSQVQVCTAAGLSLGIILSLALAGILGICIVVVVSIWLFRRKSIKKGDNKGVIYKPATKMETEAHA

Compound	Ki
CCCN(CCC)S(=O)(=O)c1ccc(C(=O)NCC(=O)O)cc1	> 10000 nM

target: Carbonic anhydrase 1 (Homo sapiens, UniProt P00915); test: Inhibition of human carbonic anhydrase-1 incubated for 15 mins by stopped-flow CO2 hydration assay
Sequence (P00915 whole entry): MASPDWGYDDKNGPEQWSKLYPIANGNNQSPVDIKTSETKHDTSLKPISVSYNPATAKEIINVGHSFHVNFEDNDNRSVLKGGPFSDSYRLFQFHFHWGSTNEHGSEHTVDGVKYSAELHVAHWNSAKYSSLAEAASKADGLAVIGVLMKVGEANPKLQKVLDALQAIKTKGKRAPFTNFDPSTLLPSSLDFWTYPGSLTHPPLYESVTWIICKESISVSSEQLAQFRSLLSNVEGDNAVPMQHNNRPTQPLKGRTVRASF

Compound	Ki
CCCN(CCC)S(=O)(=O)c1ccc(C(=O)N[C@@H](CCSC)C(N)=O)cc1	> 10000 nM

target: Carbonic anhydrase 9 (Homo sapiens, UniProt Q16790); test: Inhibition of human carbonic anhydrase-9 incubated for 15 mins by stopped-flow CO2 hydration assay

Compound	Ki
CCCN(CCC)S(=O)(=O)c1ccc(C(=O)N[C@@H](C)C(=O)O)cc1	27 nM
CCCN(CCC)S(=O)(=O)c1ccc(C(=O)N[C@@H](CC(C)C)C(=O)O)cc1	26 nM
CCCN(CCC)S(=O)(=O)c1ccc(C(=O)N[C@@H](Cc2ccccc2)C(=O)O)cc1	210 nM
CCCN(CCC)S(=O)(=O)c1ccc(C(=O)N[C@@H](Cc2c[nH]c3ccccc23)C(=O)O)cc1	25 nM
CCCN(CCC)S(=O)(=O)c1ccc(C(=O)N[C@@H](CO)C(=O)O)cc1	27 nM
CCCN(CCC)S(=O)(=O)c1ccc(C(=O)N[C@@H](Cc2ccc(O)cc2)C(=O)O)cc1	32 nM
CCCN(CCC)S(=O)(=O)c1ccc(C(=O)N[C@@H](CCC(=O)O)C(=O)O)cc1	31 nM
CCCN(CCC)S(=O)(=O)c1ccc(C(=O)N[C@@H](CCCCN)C(=O)O)cc1	32 nM
CCCN(CCC)S(=O)(=O)c1ccc(C(=O)N[C@@H](CCCNC(=N)N)C(=O)O)cc1	26 nM
CCCN(CCC)S(=O)(=O)c1ccc(C(=O)N[C@@H](CCSC)C(=O)O)cc1	61 nM
CCCN(CCC)S(=O)(=O)c1ccc(C(=O)NCC(N)=O)cc1	1.9 nM
CCCN(CCC)S(=O)(=O)c1ccc(C(=O)N[C@@H](C)C(N)=O)cc1	15 nM
CCCN(CCC)S(=O)(=O)c1ccc(C(=O)N[C@@H](CC(C)C)C(N)=O)cc1	150 nM
CCCN(CCC)S(=O)(=O)c1ccc(C(=O)N[C@@H](Cc2ccccc2)C(N)=O)cc1	25 nM
CCCN(CCC)S(=O)(=O)c1ccc(C(=O)N[C@@H](CO)C(N)=O)cc1	2.6 nM
CCCN(CCC)S(=O)(=O)c1ccc(C(=O)N[C@@H](Cc2ccc(O)cc2)C(N)=O)cc1	21 nM
CCCN(CCC)S(=O)(=O)c1ccc(C(=O)N[C@@H](CCCCN)C(N)=O)cc1	27 nM
CCCN(CCC)S(=O)(=O)c1ccc(C(=O)N[C@@H](CCCNC(=N)N)C(N)=O)cc1	20 nM
CCCN(CCC)S(=O)(=O)c1ccc(C(=O)N[C@@H](CS)C(N)=O)cc1	28 nM

— ChEMBL document CHEMBL3603815, “Exploring new Probenecid-based carbonic anhydrase inhibitors: Synthesis, biological evaluation and docking studies” (Bioorg Med Chem, 2015)
